Data reported in PubChem BioAssay (NCI).
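Step 1: Grow cells in 96-well plates. Step 2: Expose to compound for 48 hours at 5 concentrations. Step 3: Interpolate endpoints linearly; if unreached, use highest concentration. At the TGI there is no net growth.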

Experiments:
Experiment in all cases: inhibition of tumour cell growth, NCI panel, 48 h
[1] = system: RPMI-8226 leukemia
[2] = system: MCF7 breast
[3] = system: 786-0 renal
[4] = system: HT29 colon
[5] = system: CAKI-1 renal
[6] = system: CCRF-CEM leukemia
[7] = system: SNB-19 CNS
[8] = system: TK-10 renal
[9] = system: MDA-MB-435
[10] = system: HCT-116 colon
[11] = system: MOLT-4 leukemia
[12] = system: SF-295 CNS
[13] = system: PC-3 prostate
[14] = system: MDA-N
[15] = system: SK-MEL-5 melanoma

SMILES | TGI [1] | TGI [2] | TGI [3] | TGI [4] | TGI [5] | TGI [6] | TGI [7] | TGI [8] | TGI [9] | TGI [10] | TGI [11] | TGI [12] | TGI [13] | TGI [14] | TGI [15]
CC1CC(C)[C@H](O)C([C@H](O)CC2CC(=O)N(C)C(=O)C2)C1 (stereo not given in full) | > 100 µM | > 100 µM | > 100 µM | > 100 µM | > 100 µM | > 100 µM | > 100 µM | > 100 µM | > 100 µM | > 100 µM | > 100 µM | > 100 µM | > 100 µM | > 100 µM | > 100 µM
CC(C)(C)OC(=O)NC1CC=CCC1NC(=O)OC(C)(C)C (stereo not given) | > 100 µM | > 100 µM | > 100 µM | > 100 µM | > 100 µM | > 100 µM | > 100 µM | > 100 µM | > 100 µM | > 100 µM | > 100 µM | > 100 µM | > 100 µM | > 100 µM | > 100 µM
CC(=O)NC1=C(C)C(=O)c2c(nc3n2CCC3OC(=O)c2ccccc2)C1=N (stereo not given) | 4.34 µM | 2.53 µM | 3.65 µM | 3.96 µM | 4 µM | 9.71 µM | 11.7 µM | 9.17 µM | 0.319 µM | 21.2 µM | 5.24 µM | 6.53 µM | 6.85 µM | 0.347 µM | 2.83 µM
COc1ccc(OC)c([N+](=O)[O-])c1-c1nc2sccn2c1/C=N/N=C(N)N | > 100 µM | 54.2 µM | > 100 µM | > 100 µM | > 100 µM | > 100 µM | > 100 µM | > 100 µM | > 100 µM | > 100 µM | 69.5 µM | > 100 µM | > 100 µM | > 100 µM | > 100 µM
NCC[Se][Se]CCN | > 100 µM | 33.1 µM | 29.4 µM | 26.9 µM | 22.8 µM | 45.6 µM | 20.7 µM | 30.7 µM | 24.9 µM | 15.3 µM | > 100 µM | 11.5 µM | 27.5 µM | 23.4 µM | 18.4 µM
O=c1[nH]c(=O)n(C2CC(O)C(CO)O2)cc1OCCc1ccccc1 (stereo not given) | > 100 µM | > 100 µM | > 100 µM | > 100 µM | > 100 µM | > 100 µM | > 100 µM | > 100 µM | > 100 µM | > 100 µM | > 100 µM | > 100 µM | > 100 µM | > 100 µM | > 100 µM
CCC(CS(=O)(=O)O)[N+](=O)[O-] (stereo not given) | > 100 µM | > 100 µM | > 100 µM | > 100 µM | > 100 µM | > 100 µM | > 100 µM | > 100 µM | > 100 µM | > 100 µM | > 100 µM | > 100 µM | > 100 µM | > 100 µM | > 100 µM
CCN(CC)c1ccc2c(c1)OC(=O)C(c1nnc(-c3ccc([N+](=O)[O-])cc3)o1)C2 (stereo not given) | > 100 µM | > 100 µM | > 100 µM | > 100 µM | > 100 µM | > 100 µM | > 100 µM | > 100 µM | > 100 µM | > 100 µM | > 100 µM | > 100 µM | > 100 µM | > 100 µM | > 100 µM
